Experimental data from US7732449B2, “Inhibitors of cathepsin S” (IRM LLC, priority 2003, dated 2010).

How the values were obtained:
Format in all cases: biochemical
[1] = biological target: Cathepsin B (Homo sapiens, UniProt P07858); experiment: Cathepsin B inhibition, fluorogenic peptide substrate kinetic assay (selectivity); details: ratio of cathepsin B inhibition constant to cathepsin S inhibition constant;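 also: value is the cathepsin B inhibition constant divided by the cathepsin S one, each from kinetic fluorescence readings (ex 380 nm, em 450 nm) of a 10 µM coumarin peptide substrate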
[2] = biological target: Cathepsin S (Homo sapiens, UniProt P25774); experiment: Cathepsin S inhibition, fluorogenic peptide substrate kinetic assay;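 also: cleavage rate of a coumarin-labelled peptide substrate (50 µM) read as fluorescence increase at Ex 380 nm and Em 450 nm, relative to inhibitor-free control reactions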; details: Cathepsin S inhibition constant; pH5.5, 20 minutes preincubation at room temperature; read-out: Ki Cat. S
[3] = biological target: Cathepsin L (Homo sapiens, UniProt P07711); experiment: Cathepsin L inhibition, fluorogenic peptide substrate kinetic assay (selectivity); details: ratio of cathepsin L inhibition constant to cathepsin S inhibition constant
[4] = biological target: T1, Cathepsin K (Homo sapiens, UniProt P43235); experiment: Cathepsin K inhibition, fluorogenic peptide substrate kinetic assay (selectivity); details: ratio of cathepsin K inhibition constant to cathepsin S inhibition constant
T1 sequence (P43235 115-329): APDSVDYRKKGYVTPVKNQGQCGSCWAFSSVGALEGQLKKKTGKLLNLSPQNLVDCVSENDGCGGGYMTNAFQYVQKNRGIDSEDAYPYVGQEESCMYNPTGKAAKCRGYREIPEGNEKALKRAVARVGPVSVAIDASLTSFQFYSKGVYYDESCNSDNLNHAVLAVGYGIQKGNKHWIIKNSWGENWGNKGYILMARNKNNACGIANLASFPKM

Chain of Cathepsin S (P25774 115-331, species assumed): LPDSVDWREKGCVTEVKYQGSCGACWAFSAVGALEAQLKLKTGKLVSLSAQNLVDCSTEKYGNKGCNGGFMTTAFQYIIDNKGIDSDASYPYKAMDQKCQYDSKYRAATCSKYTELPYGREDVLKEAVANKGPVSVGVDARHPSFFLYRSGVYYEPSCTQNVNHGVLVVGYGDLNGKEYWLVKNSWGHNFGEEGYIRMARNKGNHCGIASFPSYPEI
Chain of Cathepsin L (P07711 114-333, species assumed): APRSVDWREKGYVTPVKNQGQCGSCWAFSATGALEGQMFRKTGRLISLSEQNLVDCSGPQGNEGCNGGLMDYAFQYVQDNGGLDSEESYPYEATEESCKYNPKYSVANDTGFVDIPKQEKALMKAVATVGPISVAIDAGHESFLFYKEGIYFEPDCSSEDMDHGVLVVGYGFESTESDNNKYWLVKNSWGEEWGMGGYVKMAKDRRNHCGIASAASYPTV

Row | SMILES | Selectivity for Cat. S over Cat. B [1] | Ki [2] | Selectivity for Cat. S over Cat. L [3] | Selectivity for Cat. S over Cat. K [4]
1 | Cc1cc(NC[C@H](C)NC(=O)O[C@@H](CC2CCCCC2)C(=O)N2CCOCC2)no1 [Example 91, [1-(S)-Methyl-2-(5-methyl-isoxazol-3-ylamino)-ethyl]-carbamic acid 1-(S)-cyclohexylmethyl-2-morpholin-4-yl-2-oxo-ethyl ester] | + (+, >10) | 1000 to 10000 nM | + (+, >10) | + (+, >10)
2 | CC(=O)N1CCN(C(=O)[C@H](CC2CCCCC2)OC(=O)N[C@@H](C)CN2c3ccc(F)cc3CC2(C)C)CC1 [Example 94, (S,S)-[2-(5-Fluoro-2,2-dimethyl-2,3-dihydro-indol-1-yl)-1-methyl-ethyl]-carbamic acid 2-(4-acetyl-piperazin-1-yl)-1-cyclohexylmethyl-2-oxo-ethyl ester] | + (+, >10) | 1000 to 10000 nM | + (+, >10) | + (+, >10)
3 | C[C@@H](CN1c2ccc(F)cc2CC1(C)C)NC(=O)O[C@@H](CC1CCCCC1)C(=O)N1CCN(S(C)(=O)=O)CC1 [Example 95, [2-(5-Fluoro-2,2-dimethyl-2,3-dihydro-indol-1-yl)-1-(S)-methyl-ethyl]-carbamic acid 1-(S)-cyclohexylmethyl-2-(4-methanesulfonyl-piperazin-1-yl)-2-oxo-ethyl ester] | + (+, >10) | 1000 to 10000 nM | + (+, >10) | + (+, >10)
4 | C[C@@H](CN1c2ccc(F)cc2CC1(C)C)NC(=O)O[C@@H](CC1CCCCC1)C(=O)N1CCSCC1 [Example 96, [2-(5-Fluoro-2,2-dimethyl-2,3-dihydro-indol-1-yl)-1-(S)-methyl-ethyl]-carbamic acid 1-(S)-cyclohexylmethyl-2-oxo-2-thiomorpholin-4-yl-ethyl ester] | + (+, >10) | 1000 to 10000 nM | + (+, >10) | + (+, >10)
5 | CC(C)[C@@H](CN1CC(C)(C)c2cc(F)ccc21)NC(=O)O[C@@H](CS(=O)(=O)Cc1ccccc1)C(=O)N1CCOCC1 [Example 110, [1-(S)-(5-Fluoro-3,3-dimethyl-2,3-dihydro-indol-1-ylmethyl)-2-methyl-propyl]-carbamic acid 2-morpholin-4-yl-2-oxo-1-(R)-phenylmethanesulfonylmethyl-ethyl ester] | + (+, >10) | 1000 to 10000 nM | + (+, >10) | + (+, >10)

Now from value to compound:

Row | Selectivity for Cat. S over Cat. B [1] | Ki [2] | Selectivity for Cat. S over Cat. L [3] | Selectivity for Cat. S over Cat. K [4] | SMILES
6 | +++ (+++, >1000) | < 100 nM | + (+, >10) | ++ (++, >100) | CC1(C)CN(C[C@@H](NC(=O)[C@H](CC2CCCCC2)NC(=O)N2CCOCC2)C2CC2)c2ccc(F)cc21 [Example 81, Morpholine-4-carboxylic acid {2-cyclohexyl-1-(S)-[1-(S)-cyclopropyl-2-(5-fluoro-3,3-dimethyl-2,3-dihydro-indol-1-yl)-ethylcarbamoyl]-ethyl}-amide]
7 | + (+, >10) | 1000 to 10000 nM | + (+, >10) | + (+, >10) | CC(=O)NS(=O)(=O)c1ccc(NC[C@H](C)NC(=O)O[C@@H](CC2CCCCC2)C(=O)N2CCOCC2)cc1 [Example 89, [2-(4-Acetylsulfamoyl-phenylamino)-1-(S)-methyl-ethyl]-carbamic acid 1-(S)-cyclohexylmethyl-2-morpholin-4-yl-2-oxo-ethyl ester]
8 | +++ (+++, >1000) | < 100 nM | +++ (+++, >1000) | +++ (+++, >1000) | CC[C@@H](CN1CC(C)(C)c2cc(F)ccc21)NC(=O)O[C@@H](CC1CCCCC1)C(=O)N1CCOCC1 [Example 92, (S,S)-[1-(5-Fluoro-3,3-dimethyl-2,3-dihydro-indol-1-yl-methyl)-propyl]-carbamic acid 1-cyclohexylmethyl-2-morpholin-4-yl-2-oxo-ethyl ester]
9 | +++ (+++, >1000) | < 100 nM | ++ (++, >100) | + (+, >10) | CC(C)[C@@H](CN1CC(C)(C)c2cc(F)ccc21)NC(=O)O[C@H](C(=O)N1CCOCC1)C1CCCCC1 [Example 111, [1-(S)-(5-Fluoro-3,3-dimethyl-2,3-dihydro-indol-1-ylmethyl)-2-methyl-propyl]-carbamic acid 1-(S)-cyclohexyl-2-morpholin-4-yl-2-oxo-ethyl ester]
